Experimental data as given in patent publication US11857521B1, “Anti-mycobacterial drugs” (priority 2022, dated 2024).
Like-named read-outs stand apart in the source and are kept apart here.

What was measured:
[1] = test system: M. smegmatis; assay: Checkerboard assay with OCG; assay type: cell-based, Mycobacterium smegmatis; conditions: for Interaction / FICI (Fractional Inhibitory Concentration Index): drug in combination with OCG; for FICI (Fractional Inhibitory Concentration Index): range of three experiments
[2] = test system: MSMEG_2694; conditions: 2×MIC for an hour, sigA housekeeping gene
Description: (§1) The bacterial cell suspension centrifuged at 40000×g for 5 min at 25° C. and resuspended in 1 mL guanidine thiocyanate (GTC) buffer. The cells were spun down at 12000×g for 5 min and resuspended in 750 μL of TRIzol reagent (Invitrogen), and added to 0.5 mL of 0.1 mm zirconia/silica beads. Cells were lysed in a bead beater for two 1 min intervals with incubation on ice between intervals. Afterwards, 2004 of chloroform was added to the tube, mixed, and spun at 12000×g for 15 min. The aqueous layer was carefully removed to 500 μL of RNase-free ethanol and mixed. From the solution, 700 μL were loaded onto Rnease Kit (Qiagen) miniprep columns and spun at 10000×g for 1 min. The remainder of the solution was then loaded and spun. The column was washed with 700 μL of RW1 buffer and discarded. The column was then washed twice with 500 μL RPE buffer and spun as previously described. The column was transferred to a new tube to elute the sample using 30 μL of RNase-free water and spun.
(§2) To ensure there is DNA-free, the sample was treated using TURBO DNA-free kit (Ambion) where a 1 μL of DNase and 3.5 μL of 10×DNase Buffer were added to the 30 μL of RNA and incubated for 1 h at 37° C. […] The concentration of RNA was determined through a ThermoFisher multichannel NanoDrop and adjusted to 50 ng/mL for cDNA reaction. […]

[3] = test system: B. cepacia ATCC 2516
[4] = test system: M. smegmatis mc^2155; assay type: cell-based, Mycobacterium smegmatis
[5] = test system: M. smegmatis mc^2155; conditions: 2×MIC
Description: M. smegmatis mc^2155 was culture as previously described in the MIC assay. […] After treatment period, 500 μL of the solution was centrifuge at 3000×g for 30 s at 25° C. The pellet was resuspended in 1 mL glutaraldehyde/cacodylate fixative solution and stored at −20° C. before imaging. Images were analyzed for significant morphological changes. The frequency of membrane ruffling, membrane delamination, cytosolic leakage, and cells that appeared hollowed (i.e., cell death) were counted and divided by the total cell number per frame. The percent of the observed cell envelope stress indicators was used for statistical analysis.

[6] = test system: MSMEG_5072; conditions: 2×MIC for an hour, sigA housekeeping gene
Description: as §1, §2

[7] = test system: M. smegmatis mc^2155; conditions: 4×MIC for 1 h
Description: Similarly, outer membrane permeability assay using 10 μM N-Phenyl-2-naphthylamine in 4% acetone was used as a non-fluorescent dye that upon hydrophobic interaction, it emits fluorescence signal. Cells were grown to mid-log phase (OD600=0.5), centrifuged at 4000×g for 2 min at 25° C., washed and resuspended in 5 mM HEPES buffer, pH 7.2. Compounds were made in HEPES buffer and 50 μL was added to an optical bottom black-sided 96-well microtiter plate. Then 50 μL of 40 μM NPN solution and 100 μL of cell suspension were added to the plate. Fluorescence was measured at 350/400 nm (excitation/emission) for 1 h. Experiments were performed in triplicates.

[8] = test system: Mab 3690 S
[9] = test system: P. aureginosa ATCC 15442
[10] = test system: M. smegmatis; conditions: after 2 h of treatment
[11] = test system: M. bovis BCG
[12] = 2 mM OCG in 100 mM NaCl, titrated with 25 mM NaOH
Description: The pH was measured using a Mettler Toledo in Lab Ultra-Micro pH Probe. The acidified solution was titrated at 5 μL increments of 25 mM NaOH. The pH readings were recorded from pH ˜2.5-11. After plotting ΔpH/Δvolume of NaOH, the two points where the largest change in pH occurred were found. The median volume between the two maxima was identified as the point where pH=pKa. Solution of 100 mM NaCl served as control. Experiment was performed in triplicates.

[13] = test system: S. aureus ATCC 6538; assay type: cell-based, Staphylococcus aureus
[14] = test system: C. albicans ATCC 10231
[15] = test system: Mab 3690 R
[16] = test system: E. coli ATCC 8739; assay type: cell-based, Escherichia coli
[17] = test system: M. smegmatis membrane potential (Δψ); conditions: OCG at 2×MIC; CCCP at various concentrations
Description: Bacterial cells were grown to late log-phase in 7H9. Cells were centrifuged at 3000×g for 5 min at 25° C., washed twice and resuspended in 10 mL of 5 mM HEPES buffer, pH 7.2 supplemented with 1 mM glucose. OD600 of the cells was then adjusted to 0.4. The cell suspension was treated with 1 μM of the potentiometric probe 3,3′-Dipropylthiadicarbocyanine Iodide (DiSC3(5)) was added. It was incubated at 37° C., and monitored the quenching of DiSC3(5) dye in the presence of M. smegmatis cells for 30 min. In a black-sided 96-well microtiter plate, polymer solution was added to the plate and serially diluted two-fold in 50 mM HEPES buffer supplemented with 1 mM glucose and 2% DMSO for a final volume of 50 μL per well and 1% DMSO. After 30 min of quenching DiSC3(5), 50 μL of the bacterial suspension with dye was added to the polymer-containing wells. […] Fluorescence was recorded 590/635 nm (excitation/emission) for 1 h every 10 min on a BioTek Synergy H1 plate reader. Assay was performed at least three independent experiments.

[18] = Mycolicibacterium smegmatis, single agent in checkerboard assay, M. smegmatis, read-out: MIC

Molecule: CO[C@H]1/C=C/O[C@@]2(C)Oc3c(C)c(O)c4c(O)c(c(/C=N/N5CCN(C)CC5)c(O)c4c3C2=O)NC(=O)/C(C)=C\C=C\[C@H](C)[C@H](O)[C@@H](C)[C@@H](O)[C@@H](C)[C@H](OC(C)=O)[C@@H]1C [Rifampin (RIF), rifampin]
- MIC [1, 18]: 8 µg/mL
- Interaction ([1]; M. smegmatis): Additive
- FICI (Fractional Inhibitory Concentration Index) ([1]; M. smegmatis): 1-2

Molecule: oligo(carbamoylated guanidine) [OCG]
- increased expression level of MSMEG_2694 compared to control Msm [2]: 50 fold
- MIC90 Bc [3]: >200 µg/mL
- change of MIC, Msm cultured in LB compared with 7H9 medium [4]: increased ˜four times
- MIC90 Msm ([4]; M. smegmatis mc 155, Table 2): 6 µg/mL
- MIC90 Msm ([4]; Msm mc^2 155 grown in 7H9 medium): 6 µg/mL
- MIC90 Msm ([4]; Msm mc^2 155 grown in LB): 25 to 50 µg/mL
- MIC ([1]; single agent in checkerboard assay, M. smegmatis): 6 µM
- TEM: membrane ruffling and delamination ([5]; starting from 1 h): signs of membrane stress including ruffling and delamination were observed
- TEM: frequency of cytosolic leakage, treated vs non-treated ([5]; up to 24 h incubation): no significant difference
- increased expression level of MSMEG_5072 compared to control Msm [6]: 10 fold
- NPN fluorescence (membrane damage) [7]: no fluorescence intensity increase
- MIC90 Mab S [8]: 65 µg/mL
- MIC90 Pa [9]: >200 µg/mL
- intracellular ATP levels (RLUs/CFUs) [10]: depletion of ATP levels
- MIC90 BCG [11]: 25 µg/mL
- pKa [12]: ~5
- MIC90 Sa [13]: 50 µg/mL
- MIC90 Ca [14]: >200 µg/mL
- MIC90 Mab R [15]: 188 µg/mL
- change of MIC, Mab R morphotype compared with S [15]: ˜three-fold increase
- MIC90 Ec [16]: >200 µg/mL

Molecule: CC(C)/N=c1\cc2n(-c3ccc(Cl)cc3)c3ccccc3nc-2cc1Nc1ccc(Cl)cc1 [Clofazimine (CLZ), clofazimine]
- MIC [1, 18]: 2.5 µg/mL
- Interaction ([1]; M. smegmatis): Additive
- FICI (Fractional Inhibitory Concentration Index) ([1]; M. smegmatis): 0.5-0.75
- FICI (Fractional Inhibitory Concentration Index) ([1]; M. smegmatis, listed as CLZ): 0.50-0.75

Molecule: COc1nc2ccc(Br)cc2cc1[C@@H](c1ccccc1)[C@@](O)(CCN(C)C)c1cccc2ccccc12 [Bedaquiline (BDQ), bedaquiline]
- MIC ([1]; Mycolicibacterium smegmatis): 0.12 µg/mL
- Interaction ([1]; M. smegmatis): Synergy
- FICI (Fractional Inhibitory Concentration Index) ([1]; M. smegmatis): 0.38-0.5

Molecule: cyanide m-chlorophenyl hydrazone [CCCP, reference compound]
- membrane potential (Δψ), DiSC3(5) fluorescence [17]: did not exhibit concentration-dependent potential changes
